This note sets out measurements from ChEMBL document CHEMBL4011641, “Prodrugs of Pyrazolo[3,4-d]pyrimidines: From Library Synthesis to Evaluation as Potential Anticancer Agents in an Orthotopic Glioblastoma Model” (J Med Chem, 2017).

In brackets after ≈: the same amount, converted by molar mass. Some results are limits rather than exact numbers.

The nature of series [1]: physchem. The following applies: PAMPA.
Description: Apparent permeability at 500 uM after 5 hrs by Blood-Brain Barrier-based PAMPA
The nature of series [2]: Metabolic stability in human liver microsomes assessed as parent compound remaining at 50 uM after 1 hr in presence of NADPH regenerating system by UV/LC-MS analysis. The format is ADME, microsome. The following applies: read-out: Stability. On the technique in general: Microsomes from liver hold many membrane-bound enzymes, among them those of drug oxidation.
The conditions of series [3]: pampa, 5 h, 500 µM.
Description: (§1) Apparent permeability at 500 uM after 5 hrs by Gastro-intestinal-based PAMPA
A short description of series [4]: Metabolic stability in mouse liver microsomes assessed as unmetabolized compound remaining at 50 uM after 1 hr in presence of NADPH regenerating system by UV/LC-MS analysis. The class given is ADME, microsome. The following applies: read-out: Stability.
A short description of series [5]: cells. The following applies: Homo sapiens, U-87 MG, 24 h.
Description: Cytotoxicity against human U87 cells assessed as reduction in cell viability after 24 hrs by trypan blue assay
The nature of series [6]: physchem. The note with it: aqueous.
Description: Aqueous solubility of compound at 1 mg after 24 hrs by UV/LC-MS analysis
Series [7] can be described thus: cells. The following applies: Homo sapiens, U-87 MG, 72 h.
Description: Cytotoxicity against human U87 cells assessed as reduction in cell viability after 72 hrs by trypan blue assay
A short description of series [8]: physchem. The following applies: PAMPA. The source holds these as a separate data set. (In general: The PAMPA barrier holds no transporters, so it reflects passive diffusion.)
Description: as §1
Series [9] is described as follows: cells. The following applies: Homo sapiens, U-87 MG, 48 h.
Description: Cytotoxicity against human U87 cells assessed as reduction in cell viability after 48 hrs by trypan blue assay
Series [10] in a line: Half life in human plasma by UV/LC-MS analysis. The format is ADME, cell-free.
Series [11] in a line: Half life in PBS buffer at 100 uM at pH 7.4 by UV/LC-MS analysis. The class given is physicochemical.
Series [12] can be described thus: Half life in methanol at 100 uM by UV/LC-MS analysis. The class given is physicochemical.
The target of series [13] is Proto-oncogene tyrosine-protein kinase Src (Homo sapiens, UniProt P12931). In words: biochemical.
Sequence of Proto-oncogene tyrosine-protein kinase Src (P12931 2-536 limits assumed): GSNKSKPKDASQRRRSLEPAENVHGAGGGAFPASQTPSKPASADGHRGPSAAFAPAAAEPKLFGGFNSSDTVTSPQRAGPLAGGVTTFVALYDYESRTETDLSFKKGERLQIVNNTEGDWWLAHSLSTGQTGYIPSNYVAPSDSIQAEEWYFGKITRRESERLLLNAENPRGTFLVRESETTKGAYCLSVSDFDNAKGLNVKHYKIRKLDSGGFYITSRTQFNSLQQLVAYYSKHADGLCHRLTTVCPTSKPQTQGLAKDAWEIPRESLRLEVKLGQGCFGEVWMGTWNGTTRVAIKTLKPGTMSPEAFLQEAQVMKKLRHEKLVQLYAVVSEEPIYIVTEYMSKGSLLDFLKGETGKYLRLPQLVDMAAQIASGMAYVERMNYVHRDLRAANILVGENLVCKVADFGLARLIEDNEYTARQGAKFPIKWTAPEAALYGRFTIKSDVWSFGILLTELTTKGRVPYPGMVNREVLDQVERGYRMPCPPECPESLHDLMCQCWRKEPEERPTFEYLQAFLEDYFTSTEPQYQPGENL
Description: Inhibition of human wild type full length N-terminal GST/6His-tagged SRC (M1 to L536 residues) expressed in baculovirus infected Sf9 cells using src peptide as substrate after 5 mins in presence of [gamma-32P]ATP by scintillation counting method
Series [14] concerns the target Tyrosine-protein kinase ABL1 (Homo sapiens, UniProt P00519).
Description: Inhibition of human wild type full length N-terminal GST/6His-tagged ABL (P118 to S535 residues) expressed in Sf9 cells using abltide as substrate after 5 mins in presence of [gamma-32P]ATP by scintillation counting
The nature of series [15]: Prodrug activation in human U87 cells assessed as N-(3-bromophenyl)-6-(methylthio)-1-(2-phenylpropyl)-1H-pyrazolo[3,4-d]pyrimidin-4-amine formation at 20 uM up to 25 hrs by UV/LC-MS analysis. The format is cell-based. The note with it: u-87mg atcc.
Series [16] in a line: Drug uptake in cytoplasm of human U87 cells at 20 uM after 7 hrs by UV/LC-MS analysis. The format is ADME.

Sequence of Tyrosine-protein kinase ABL1 (P00519 whole entry): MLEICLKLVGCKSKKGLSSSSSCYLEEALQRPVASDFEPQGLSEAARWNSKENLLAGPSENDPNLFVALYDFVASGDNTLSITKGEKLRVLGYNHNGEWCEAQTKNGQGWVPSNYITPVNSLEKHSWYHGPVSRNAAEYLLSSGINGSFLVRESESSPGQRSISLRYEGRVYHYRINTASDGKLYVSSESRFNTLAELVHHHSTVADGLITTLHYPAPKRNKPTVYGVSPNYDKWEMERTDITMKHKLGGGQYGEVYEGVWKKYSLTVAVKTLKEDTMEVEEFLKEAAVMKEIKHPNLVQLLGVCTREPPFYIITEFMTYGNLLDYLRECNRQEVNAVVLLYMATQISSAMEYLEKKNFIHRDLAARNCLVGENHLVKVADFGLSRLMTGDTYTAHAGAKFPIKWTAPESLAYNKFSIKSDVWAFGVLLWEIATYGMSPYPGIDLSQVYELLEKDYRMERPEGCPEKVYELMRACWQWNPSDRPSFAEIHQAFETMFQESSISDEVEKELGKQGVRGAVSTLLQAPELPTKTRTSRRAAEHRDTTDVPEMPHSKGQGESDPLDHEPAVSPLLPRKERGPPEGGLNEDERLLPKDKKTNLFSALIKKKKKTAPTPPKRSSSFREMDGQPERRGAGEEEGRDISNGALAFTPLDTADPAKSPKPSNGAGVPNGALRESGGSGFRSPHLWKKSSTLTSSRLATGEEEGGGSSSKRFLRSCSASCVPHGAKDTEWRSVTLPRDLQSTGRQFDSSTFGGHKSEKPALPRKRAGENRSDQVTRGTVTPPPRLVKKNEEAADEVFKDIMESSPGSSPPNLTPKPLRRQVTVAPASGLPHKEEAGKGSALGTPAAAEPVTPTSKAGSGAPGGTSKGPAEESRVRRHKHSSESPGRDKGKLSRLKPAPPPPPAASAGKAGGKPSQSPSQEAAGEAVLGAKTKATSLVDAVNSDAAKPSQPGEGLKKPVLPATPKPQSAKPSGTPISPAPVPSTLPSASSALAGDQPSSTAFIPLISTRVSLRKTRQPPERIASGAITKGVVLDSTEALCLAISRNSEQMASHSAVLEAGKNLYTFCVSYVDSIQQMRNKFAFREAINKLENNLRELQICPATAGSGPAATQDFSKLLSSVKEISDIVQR

As a reminder, the Papp is the rate of passage across a membrane or cell layer, normalised by area and donor concentration. `CSc1nc(Nc2cccc(Cl)c2)c2cnn(CCc3ccccc3)c2n1` showed an apparent permeability coefficient (Papp) at 5 h, 500 µM in series [1] of 1.48 ×10⁻⁶ cm/s. Moreover, the remaining at 1 h, 50 µM in series [2] was 99%. In addition, the Papp in series [3] worked out at 0.25 ×10⁻⁶ cm/s.
As a reminder, the IC50 is the concentration at which inhibition is half-maximal. Usually solubility stands for the dissolved amount per volume that the medium holds. As to `CSc1nc(Nc2cccc(Br)c2)c2cnn(CC(C)c3ccccc3)c2n1` (configuration not stated), the Papp at 5 h, 500 µM in series [1] was determined as 0.5 ×10⁻⁶ cm/s; in series [8] it was 0.01 ×10⁻⁶ cm/s. Also, the remaining at 1 h, 50 µM in series [4] came out at 94.2%. Also, the IC50 is 16.2 µM in [5], 1.5 µM in series [7] and 2.3 µM in series [9]. In series [6], the concentration in solution (solubility at 24 h) was 0.01 µg/mL (≈ 0.022 µM).
Consider `ClC(Cn1ncc2c(Nc3ccccc3)ncnc21)c1ccc(Br)cc1` (configuration not stated), for which the half-inhibitory concentration (IC50) in series [5] was 25.3 µM; in series [7] it was 14 µM; in [9] it was 17.3 µM. The remaining at 1 h, 50 µM in series [2] is 96.4%. In [6], this molecule came in with a solubility at 24 h of 0.06 µg/mL (≈ 0.14 µM).
`Clc1ccccc1CNc1ncnc2c1cnn2CC(Cl)c1ccc(Br)cc1` (configuration not stated) gave a Papp at 5 h, 500 µM in series [1] of 13.2 ×10⁻⁶ cm/s. The remaining at 1 h, 50 µM in series [2] was 95.2%. The molecule further yielded a solubility at 24 h in series [6] of under 0.01 µg/mL.
By half-life is commonly meant how long it takes for the measured level to halve. Lower therefore signals fast loss. In the case of `CCCCN(C(=O)OCCN1CCN(C)CC1)c1nc(SCC)nc2c1cnn2CC(Cl)c1ccccc1` (configuration not stated), in [10], the half-life was 0.46 h. Further, the half-life at 100 µM is 1 h in series [11] and 2 h in series [12].
As for `CSc1nc(NCCc2ccccc2)c2cnn(CC(Cl)c3ccccc3)c2n1` (configuration not stated), the results for the Papp at 5 h, 500 µM in [1] and in series [8] were 6.17 ×10⁻⁶ cm/s and 7.4 ×10⁻⁶ cm/s, respectively. In addition, in series [2], the remaining at 1 h, 50 µM was 96.2%. In series [6], this molecule returned a solubility at 24 h of 0.07 µg/mL (≈ 0.165 µM).
A word on the Ki: it is a measure of affinity in units of concentration, obtained from inhibition or displacement. Read a high Ki as a looser hold on the target. `CSc1nc(Nc2cccc(Cl)c2)c2cnn(CC(Cl)c3ccccc3)c2n1` (configuration not stated): the Papp at 5 h, 500 µM in series [1] stood at 3.14 ×10⁻⁶ cm/s. Besides, the IC50 in series [5] came to 21.8 µM; in [7], 12.5 µM; in series [9], 17.2 µM. Also, the remaining at 1 h, 50 µM in series [2] was determined as 91.1%. For the same molecule, in series [6], the solubility at 24 h was 0.13 µg/mL (≈ 0.302 µM). In addition, in series [13], the affinity corresponds to a Ki of 0.72 µM. The molecule further returned a Papp in series [3] of 0.26 ×10⁻⁶ cm/s.
Consider `CSc1nc(N(C(=O)OCCN2CCN(C)CC2)c2cccc(Cl)c2)c2cnn(CCc3ccccc3)c2n1`, for which, in series [10], the half-life was 3.13 h. Besides, the apparent permeability (Papp) at 5 h, 500 µM in [1] came out at 4.3 ×10⁻⁶ cm/s; in [8], 4.69 ×10⁻⁶ cm/s. Besides, the solubility at 24 h in series [6] was determined as 6.32 µg/mL (≈ 11.2 µM). Further, the half-life at 100 µM in series [11] and in [12] was over 48 h throughout.
`CSc1nc(N(C(=O)OC(Cc2ccccc2)CN2CCN(C)CC2)c2cccc(Br)c2)c2cnn(CC(C)c3ccccc3)c2n1` (configuration not stated) showed a half-life in series [10] of 40 h. The Ki in series [14] and in series [13] was over 100 µM in each case. Further, the results for the Papp at 5 h, 500 µM in series [1] and in [8] were 1.01 ×10⁻⁶ cm/s and 2.32 ×10⁻⁶ cm/s, respectively. The half-maximal inhibitory concentration (IC50) in series [5] was 6.7 µM; in series [7], 1.69 µM; in series [9] it was 2.45 µM. Besides, the Drug metabolism result in [15] is reported as “Metabolite_Detected”. This molecule also registered a solubility at 24 h in [6] of 0.99 µg/mL (≈ 1.39 µM). Besides, the half-life at 100 µM in series [11] and in series [12] was over 48 h in each case. In series [16], the Drug uptake entry is recorded as “Active”.
In [10], `CN1CCN(CCOC(=O)N(Cc2ccccc2)c2ncnc3c2cnn3CC(Cl)c2ccccc2)CC1` (configuration not stated) gave a half-life of 64.4 h. In addition, the results for the Papp at 5 h, 500 µM in series [1] and in series [8] were 5.01 ×10⁻⁶ cm/s and 6.7 ×10⁻⁶ cm/s, respectively. In addition, the IC50 was 18.6 µM in series [5], 15 µM in series [7] and 15.2 µM in series [9]. The remaining at 1 h, 50 µM in series [2] came to 86.4%. The amount in solution in series [6] (solubility at 24 h) came to 18.8 µg/mL (≈ 35.2 µM). For the same molecule, the half-life at 100 µM in [11] and in series [12] was over 48 h throughout.
In series [10], `CCC(CN1CCN(C)CC1)OC(=O)N(c1cccc(Br)c1)c1nc(SC)nc2c1cnn2CC(C)c1ccccc1` (configuration not stated) gave a half-life of 11.3 h. In addition, the Papp at 5 h, 500 µM in [1] turned out to be 0.93 ×10⁻⁶ cm/s; in series [8], 1.45 ×10⁻⁶ cm/s. The IC50 in series [5] came out at 7.7 µM; in series [7], 2 µM; in series [9], 6.4 µM. Further, in [6], the solubility at 24 h came to 1.96 µg/mL (≈ 3 µM). Also, the half-life at 100 µM in [11] and in series [12] was over 48 h in each case.
Consider `CN1CCN(CCOC(=O)N(c2ccccc2)c2ncnc3c2cnn3CC(Cl)c2ccc(Br)cc2)CC1` (configuration not stated), for which the half-life in series [10] is 5.68 h. Moreover, the Papp at 5 h, 500 µM was found to be 6.97 ×10⁻⁶ cm/s in [1] and 9.91 ×10⁻⁶ cm/s in [8]. The figures for the IC50 in [5], in [7] and in series [9] were 8.2 µM, 2 µM and 5.1 µM, respectively. Besides, the solubility at 24 h in series [6] came to 41.6 µg/mL (≈ 69.4 µM). Further, the half-life at 100 µM in series [11] and in [12] was over 48 h each time.
As for `CSc1nc(N(C(=O)OC(C)CN2CCN(C)CC2)c2cccc(Br)c2)c2cnn(CC(C)c3ccccc3)c2n1` (configuration not stated), the Ki in [14] and in series [13] was over 100 µM in each case. Also, the values for the Papp at 5 h, 500 µM in series [1] and in [8] were 2.39 ×10⁻⁶ cm/s and 2.15 ×10⁻⁶ cm/s, respectively. The results for the half-maximal inhibitory concentration (IC50) in series [5], in [7] and in [9] were 7.4 µM, 1.8 µM and 4.5 µM, respectively. For the same molecule, the Drug metabolism entry in [15] is “Metabolite_Detected”. The solubility at 24 h in series [6] turned out to be 3.4 µg/mL (≈ 5.32 µM). Besides, the half-life at 100 µM in series [11] and in series [12] was over 48 h throughout. In addition, the Drug uptake entry in series [16] is listed as “Active”.
In turn, `CSc1nc(N(C(=O)OCCN2CCN(C)CC2)c2cccc(Cl)c2)c2cnn(CC(Cl)c3ccccc3)c2n1` (configuration not stated) showed a half-life in series [10] of 3.71 h. In addition, the figures for the Papp at 5 h, 500 µM in series [1] and in series [8] were 4.14 ×10⁻⁶ cm/s and 4.95 ×10⁻⁶ cm/s, respectively. Further, the IC50 is 11.5 µM in [5], 2.54 µM in [7] and 7.9 µM in series [9]. In series [6], this molecule came in with a solubility at 24 h of 4.22 µg/mL (≈ 7.03 µM). Also, the half-life at 100 µM in series [11] and in series [12] was over 48 h in each case.
Regarding `CSc1nc(N(C(=O)OC(CN2CCN(C)CC2)c2ccccc2)c2cccc(Br)c2)c2cnn(CC(C)c3ccccc3)c2n1` (configuration not stated), the half-life at 100 µM in [11] and in [12] was under 0.25 h throughout.
`CN1CCN(CCOC(=O)N(Cc2ccccc2Cl)c2ncnc3c2cnn3CC(Cl)c2ccc(Br)cc2)CC1` (configuration not stated) showed a half-life in [10] of 75 h. Moreover, the values for the Papp at 5 h, 500 µM in series [1] and in [8] were 1.92 ×10⁻⁶ cm/s and 2.38 ×10⁻⁶ cm/s, respectively. For the same molecule, the solubility at 24 h in [6] stood at 1.95 µg/mL (≈ 3.01 µM). In addition, the half-life at 100 µM in [11] and in [12] was over 48 h throughout.
The molecule `CSc1nc(N(CCc2ccccc2)C(=O)OCCN2CCN(C)CC2)c2cnn(CC(Cl)c3ccccc3)c2n1` (configuration not stated) showed a half-life in [10] of 45.2 h. In addition, the results for the apparent permeability coefficient (Papp) at 5 h, 500 µM in series [1] and in series [8] were 0.01 ×10⁻⁶ cm/s and 0.85 ×10⁻⁶ cm/s, respectively. Moreover, in series [6], the solubility at 24 h stood at 107 µg/mL (≈ 180 µM). For the same molecule, the half-life at 100 µM in series [11] and in series [12] was over 48 h throughout.
Regarding `ClC(Cn1ncc2c(NCc3ccccc3)ncnc21)c1ccccc1` (configuration not stated), the IC50 came out at 14.6 µM in [5], 2.9 µM in series [7] and 4.9 µM in series [9]. The remaining at 1 h, 50 µM in series [2] is 78.3%. For the same molecule, the concentration in solution in series [6] (solubility at 24 h) came to 0.7 µg/mL (≈ 1.92 µM).
Consider `CCCCNc1nc(SCC)nc2c1cnn2CC(Cl)c1ccccc1` (configuration not stated), for which the Papp at 5 h, 500 µM in series [1] came out at 9.99 ×10⁻⁶ cm/s. The same molecule gave a solubility at 24 h in series [6] of 0.05 µg/mL (≈ 0.128 µM).
